One data set relates to HIV-1JRCSF (R5 virus). In kind it is cell-based. The conditions noted are these: PBMC, peptide at 1 μM. The procedure: (§1) Neutralization of HIV-1 infectivity for PBMC was performed as previously described by analysing intracellular staining of p24 Ag after a single round of infection. […] PHA-stimulated PBMC (25 μl, 2 × 10^5 cells/well) were added to the mixture. After overnight incubation, 100 μl of culture medium containing 20 U/ml of IL-2 were added and cells were cultured for an additional 24 h at 37°C. For intracellular p24 Ag staining, cells were fixed with 4% paraformaldehyde for 20 min, permeabilized with 0.05% saponin and stained with a fluorescent anti-p24 mAb (PE-anti-p24, KC57 clone, Beckman Coulter, Hialeah, FL) as a 1/160 dilution in 1% BSA, 0.05% saponin in PBS (pH = 7.4) for 15–20 min at 4°C. The percentage of p24 positive cells was monitored by flow cytometry (FACScalibur with the XL software) by gating 20,000 events on the living cell population identified by forward- and side-scatter parameters.

On the set-up of data set [1]: method as in 2 sources, one per row (each row's own in cited_ref): ref 20 = [20]; PMID 17553560; doi:10.1016/j.ceca.2007.04.011; Yu H Alfsen A Tudor D Bomsel M The binding of HIV-1 gp41 membrane proximal domain to its mucosal receptor, galactosyl ceramide, is structure-dependent Cell Calcium 2008 43 73 82 17553560 10.1016/j.cec ||| ref 36 = [36]; PMID 17276993; doi:10.1074/jbc.M609148200; Liu S Jing W Cheung B Lu H Sun J Yan X Niu J Farmar J Wu S Jiang S HIV gp41 C-terminal heptad repeat contains multifunctional domains. Relation to mechanisms of action of anti-HIV peptides J Biol Chem. The conditions noted are these: Table 1, left column; cited from earlier work.

Data set [2] deals with T20-resistant HIV-1 strains (ENF-1 and ENF-2). The data set can be described thus: Single-cycle infectivity assay, T20-resistant strains, U373MG-CD4-CCR5-LTR-lacZ cells. To be noted: at concentrations as much as 250- to 2000-fold higher than the IC50 of P5. In kind it is cell-based. The source says:
(§2) We constructed viruses bearing the envelope glycoproteins derived from virus populations present before and during T20 treatment of a patient who received T20 as part of a salvage therapy, as we reported earlier. […] Each chimeric proviral clone was obtained by replacing the AgeI-NheI fragment of a modified pNL4-3 vector (nt 6346 to 8287 in pNL4-3) by a AgeI-NheI PCR fragment amplified from the envelope subclone. Sequences of oligonucleotides used for PCR and site-directed mutagenesis can be provided upon request. […] [29].
(§3) These assays were performed as previously described. Two days before infection, U373MG-CD4-CCR5-LTR-lacZ cells were seeded into 96-well plates at a density of 2,000 cells/well. […] Forty hours after infection, cells were lysed using 100 μl/well of lysis buffer (5 mM MgCl2 and 0.1% NP-40 in 1× phosphate-buffered saline), prior to addition of 100 μl/well of chromogenic substrate (6 mM chlorophenol red-β-D-galactopyranoside; CPRG, Roche) in lysis buffer.

The subject of data set [3] is primary human CD4+ T cells. The data set can be described thus: Binding of peptides to CD4+ target cells (2F5 IgG, flow cytometry), primary cells. The conditions noted are these: 1 h at room temperature, RPMI 10% FCS, micro-molar range. As to the method:
(§4) Binding of peptides was evaluated using either the lymphocytic cell line CD4^+- CEM-NK^r (NK-resistant) cells (NIH AIDS Reagent Programm, USA)or PHA-activated CD4^+ T cells purified from peripheral blood of 5 healthy donors using human CD4^+ T cells enrichment kit (StemCell Technologies Inc., France). 5 × 10^5 cells were incubated with indicated concentrations of peptide for 1 h at room temperature in a total volume of 50 microliter/μl of RPMI 10%FCS. After 2 wahses in cold medium, bound peptide was detected with the human IgG 2F5 (10 microg/μg), or irrelevant human IgG as control, for 1 h at 37°C followed anti-human IgG-FITC mAb (1:1000, Jackson ImmunoResearch, France). Binding of peptides to CD4^+ cells was evaluated by flow cytometry (FACSCalibur, Becton Dickinson) on 10^4 events, gated by forward and side scatter and analyzed for FL1 (FITC channel) using the Cytomix RXP software.
(In general: Flow cytometry measures light scatter and fluorescence of single cells or particles in a stream.)

The test system of a further data set is HIV-1Lai (X4 virus). Kind of data set: Neutralization of HIV-1 infection of PBMC, intracellular p24 staining (X4 virus). The format is cell-based. The conditions noted are these: peptide at 1 μM. As to the method: as §1
The test system of data set [4] is T20-sensitive HIV-1 strains (pre-ENF and JRCSF). Kind of data set: Single-cycle infectivity assay, T20-sensitive strains, U373MG-CD4-CCR5-LTR-lacZ cells. The format is cell-based. The conditions noted are these: P5 more potent than T20.
From the text: as §2, §3

For data set [5], the system named is CD4+ CEM-NKr lymphocytic cell line. The data set can be described thus: Binding of peptides to CD4+ target cells (2F5 IgG, flow cytometry), cell line. The conditions noted are these: 1 h at room temperature, RPMI 10% FCS, micro-molar range. Also on record: species or system human. The procedure:
as §4

A short description of data set [6]: Far-UV circular dichroism, α-helical content. In kind it is physicochemical. To be noted: 10 μM in PBS. As to the method:
Far-UV circular dichroism (CD) was performed using 10 μM of each peptide solution in PBS. Each spectrum was recorded from 260 nm to 190 nm at 25°C by using a Jasco CD spectrophotometer (Jasco, Japan) with a cell path length of 0.05 cm. Spectra were collected as an average of three scans, with a scan speed of 20 nm/min and a response time of 2 sec. The control (solvent) CD spectra were subtracted to eliminate background effects. Data were reported in millidegrees and converted to molar ellipticity [θ] in units as follows: degree cm^2 dmol^-1. The percentage of α-helical content was estimated by assuming that a [θ]222 value of -33000 deg cm^2 dmol^-1corresponds to 100% α-helix.
CD spectroscopy is a practical and efficient method for secondary structure characterization of a protein or peptide.
Far-UV CD spectra were all recorded at room temperature, with a path-length of 0.05 cm. Peptide concentration was 10 microM in PBS, pH 7.2.
A general note: Circular dichroism is widely used to follow secondary structure.

Data set [7] has as its system HIV-Lai env mediated fusion of Hela-env-Lai cells with HeLa P4.2 (Hela-CD4-LTR-LacZ) cells. The data set can be described thus: HIV-1 env-mediated cell-to-cell fusion assay (β-galactosidase read-out). The format is cell-based. To be noted: for IC50: 6 h co-culture at 37°C, DMEM with calcium, others chemically synthesized; for inhibition of cell-cell fusion: peptide at 1 μM. As to the method:
Fifteen minutes later, target cells (HeLa P4.2) were added to the wells (10^5 per well) and co-cultured for 6 h at 37°C. Then, cell-cell fusion was monitored by beta-galactosidase assay. Briefly, cells were lysed in 80 μl of lysis buffer (5% NP40 in PBS without CaCl2 and MgCl2) for 10 min and then centrifuged at 10,000 g for 5 min at 4°C. Equal volumes (50 μl) of lysate and reaction buffer (120 mM Na2HPO4, 80 mM NaH2PO4, 2 mM MgSO4, 20 mM KCl, 10 mM β-mercaptoethanol, 16 mM CPRG (chlorophenol red-β-D-galactopyranoside, Roche, France) were combined and incubated for 60 min at room temperature in the dark. The absorbance at 590 nm of each sample was measured.
Cell fusion experiments are convenient assays for analysis of the mechanism by which peptides inhibit virus entry into host cells. Hela-CD4-LTR-LacZ (P4.2) cells stably express the human CD4 molecule, CXCR4 and long terminal repeat (LTR) driven lacZ gene. Hela-env-Lai cells stably express HIV-Lai envelope glycoproteins gp120 and gp41, and the HIV-1 transactivator Tat. Fusion of Hela-Env-Lai cells and P4.2 cells results in transferring Tat to P4.2 cell cytosol. Tat in turn, transactivates the LTR and initiates transcription of the lacZ gene. The extent of fusion is directly related to β-galactosidase activity in cell lysates.
Different concentrations (≤ 1 μM) of peptides were incubated with HeLa-env-Lai cells in culture medium (DMEM) that contained calcium and magnesium, prior to addition of the P4.2 cells.

Read-outs that look alike come from different tables or passages of the source. Bounds are passed on as bounds.

In the case of Enfuvirtide, the “inhibitory activity, R5 virus infection” value in the data set with HIV-1JRCSF (R5 virus) is recorded as “greater than 90%”. Also, the “[θ]222” value in data set [1] was -2 10^-3deg cm^2dmol^-1. Further, the “inhibition of T20-resistant strains (in words)” value in [2] is “failed to inhibit”. In data set [3], the “binding to primary human CD4+ T cells (in words)” value was “unable to bind”. For the same substance, the “inhibitory activity, X4 virus infection” value in the data set with HIV-1Lai (X4 virus) (PBMC) was “greater than 90%”. In the data set on HIV-1Lai (X4 virus) (human PBMC, HIV-Lai), the “inhibition of PBMC infection by X4 virus (in words)” value is listed as “potent inhibition”. Also, in [4], the “activity against T20-sensitive strains (in words)” value is “active”. The “binding to CD4+ lymphocyte cell line CEM (in words)” value in data set [5] is given as “unable to bind”.
As to “LZ: peptide comprising the gp41 N-terminal leucine zipper domain, a.a. 560–594 (EAQQHLLQLTVWGIKQLQARILAVERYLKDQQLLG; gp41; UniProt P04578 560-594, looked up, fragment)”, in [6] (Table 1, chemically synthesized peptides alone or with LZ), the “[θ]222” value is listed as -4 10^-3deg cm^2dmol^-1. Besides, the IC50 in data set [7] (Table 2, right column, alone or in the presence of LZ, P7 recombinant, read-out: IC50 (nM, Mean ± S.D.)) is more than 1000 nM. For the same substance, the “inhibition of cell-cell fusion” value in [7] is given as “negligible inhibition”.
Regarding “N36: gp41 NHR peptide a.a. 546–581, from the AIDS Research and Reference Reagent Program [Peptide N36]”, in data set [6] (Table 1, left column, chemically synthesized peptides alone or with N36), the “[θ]222” value is -6 10^-3deg cm^2dmol^-1. In addition, the IC50 in [7] (Table 2, left column, peptides 50 to 1000 nM, P5L recombinant, read-out: IC50g (nM, Mean ± S.D.)) is more than 1000 nM. Further, in data set [7], the “inhibition of cell-cell fusion” value is “negligible inhibition”.
